Tests used:
[1] = biological target: T1, spin-labeled SULT1E1, spin label attached at Cys residue 233 (C69S/N233C) (Homo sapiens, UniProt P49888, C69S/N233C); assay: Initial-rate studies, spin-labeled construct (label at Cys 233); type: biochemical; conditions: spin label at Cys 233; parentheses = one SD; read-out: Ki OH-PCB1
T1 construct: E. coli codon-optimized SULT1E1 coding region inserted into the PreScission Protease cleavage site; His/GST/MBP triple tag (N, cleaved yes); made in house; host or cells: E. coli BL21(DE3)
T1 sequence (P49888 1-294 C69S/N233C): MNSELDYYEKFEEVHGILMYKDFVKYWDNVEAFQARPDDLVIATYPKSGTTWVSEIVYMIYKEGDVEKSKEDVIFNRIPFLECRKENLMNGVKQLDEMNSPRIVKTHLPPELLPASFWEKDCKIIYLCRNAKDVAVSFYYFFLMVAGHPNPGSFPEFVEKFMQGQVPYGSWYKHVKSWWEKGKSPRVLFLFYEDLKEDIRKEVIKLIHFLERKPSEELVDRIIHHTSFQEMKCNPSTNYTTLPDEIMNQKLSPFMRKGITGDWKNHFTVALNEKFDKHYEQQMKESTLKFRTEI
Procedure: Spin labels were attached to the SULT1E1 scaffold at Cys residues that were site-specifically incorporated via PCR-based mutagenesis. Prior to creating spin-label attachment constructs, reactive Cys was removed from the native scaffold. Only one of the four native SULT1E1 Cys (i.e., C69) reacts with DTNB ([39]), and mutagenic conversion of C69 to ser produced a stable, fully active non-DTNB-reactive scaffold. Five individual cys-attachment constructs were prepared from the C69S mutant (G16C, K25C, N150C, Q163C, and N233C). Mutants were labeled (see, Experimental procedures) and the initial rate parameters (kcat, Km and Ki) of each spin-labeled mutant were determined (see, Experimental procedures, Initial-Rate studies) to evaluate whether the catalytic integrity of the constructs had been compromised by the insertions and/or spin label attachments. […]
Labels (N-cyclohexylmale-imide or 3-maleimido-PROXYL) were added in 20-fold excess over reactive cysteine to a solution containing SULT1E1 construct (50 μM active sites), 0.50 mM PAP, and 50 mM KPO4 (pH 7.4), 25 °C ± 2 deg. […] The reactions were monitored by using DTNB to measure unreacted cysteine and were considered complete when >98% of the cysteine had reacted (∼3 h).
C. Reaction progress was monitored via the fluorescence change associated with 1-HP sulfonation (λex = 325 nm, λem = 370 nm ([51], [52])). […]

[2] = system: estrogen receptor (ER) activation in Ishikawa cells expressing F75A/F80A SULT1E1; assay: cells; type: cell-based, human; conditions: Homo sapiens, Ishikawa; F75A/F80A cell line; OH-PCB titration at 10 nM E2 (footnote a); NE = No Effect; read-out: Ligand EC50, ER activation
Procedure: (§1) pcDNA 3.1 constructs harboring either the SULT1E1 WT or double mutant (F75A/F80A) coding regions were generated using Gibson Assembly ([74]). The vectors were linearized using BGIII. Ishikawa cells were grown at 37 °C ± 2 deg. C in growth medium (MEM media containing 10% v/v FBS). At confluence, the cells were washed (3×) with PBS media before coating with an Opti-MEM solution containing a linearized construct (50 ng μg^−1) and lipofectamine (2.5 units ml^−1). After 24 h at 37 °C ± 2 deg. C, cells were washed (3×) with PBS before adding growth medium containing neomycin (400 μg ml^−1) to select transfectants. Selective growth medium was replenished every 48 h until single colonies could be isolated (∼3–6 weeks). Single colonies were transferred using trypsin digest (0.05%) to 12-well plates and grown at 37 °C ± 2 deg. C to confluence for further experimentation and storage.
(§2) Transfected Ishikawa cells were grown at 37 °C ± 2 deg. C to 60 to 70% confluency in MEM containing 10% v/v FBS. Cells were then transferred to 96-well tissue culture plates and grown at 37 °C ± 2 deg. C to 80% confluency in MEM containing 10% v/v charcoal filtered FBS. The plate was then washed with PBS and grown at 37 °C ± 2 deg. C for 24 h in MEM without FBS. Estradiol (0–3.0 μM) and OH-PCB (0–1.0 μM) solubilized in neat DMSO were added and cells were incubated at 37 °C ± 2 deg. C for 5 days. The final concentrations of DMSO were ≤0.10%. Cells were then washed twice with PBS before adding pNpp (5.0 mM) in PBS ([75]). Following incubation with pNpp for 3 h at 25 °C ± 2 deg. C, wells were read at 405 nm using a Synergy HT BioTek Plate Reader.

[3] = system: estrogen receptor (ER) activation in Ishikawa cells expressing WT SULT1E1; assay: cells; type: cell-based, human; conditions: Homo sapiens, Ishikawa; WT cell line; OH-PCB titration at 10 nM E2 (footnote a); parentheses = one SD; read-out: Ligand EC50, ER activation
Procedure: as §1, §2

Oc1ccc(-c2c(Cl)cccc2Cl)cc1 [OH-PCB1, 4ʹ-OH-2,6-dichlorobiphenol]
Ki [1]: 58 nM
EC50 [2]: > 1000 nM
EC50 [3]: 38 nM
